Assay results reported in patent US6677433B2 (The Regents of the University of California, priority 2001, dated 2004).

Experiments:
[1] = target: T1, Acetylcholine Receptor (Mus musculus, UniProt P02716+P04756+P04760); assay type: binding; conditions: cells treated with reductant, washed, then toxin; no reductant = 100
T1 construct: Mouse cells, line C2, were grown as described by Gu et al; endogenous in cells; host or cells: mouse cell line C2, after fusion medium (myotubes)

[2] = system: castor seed 2S protein; assay type: biochemical, Ricinus communis; conditions: 20 min at 25° C.
[3] = Reoxidation of reduced BLG in air; assay type: physicochemical; conditions: reduced by either NTS or DTT
Experimental: Two sulfhydryl (SH) groups can often spontaneously react to form an S—S bond in the presence of oxygen. […] For example, the reduced form of β-lactoglobulin (BLG), a major allergen of cow's milk, is fully reoxidized after 3 days in air whether reduced by either NTS or DTT. This invention provides for the stabilization of proteins, including allergenic proteins reduced by the NTS at 4° C. and by DTT at 55° C. Other physiological reductants such as lipoic acid may also be used to initially reduce the proteins. In general, the reduction reactions were conducted as described in previous examples. The proteins are stabilized in that the SH groups of these proteins and allergens are blocked and prevented from reoxidizing to form S—S bonds. This stabilization is maintained for at least three months, preferably at least six months and more preferably for longer than one year. Reduced BLG was stabilized by reaction with the physiological disulfides, cystamine and oxidized glutathione (GSSG) and also by heat. Other physiological disulfides such as homoglutathione and some microbial disulfides would also be suitable. Besides BLG, examples are provided for milk, peanut and pollen extracts. However, other reduced proteins such as those of egg, soy, rice, wheat and barley may also be stabilized by reaction with the same physiological disulfides and by treatment with heat. […]

[4] = system: pepsin; assay: Assay for stability to pepsin (simulated gastric fluid); assay type: in vitro ADME, porcine; conditions: 37° C.
Experimental: BLG (1 mg/ml) or milk (15 mg/ml) were mixed with simulated gastric fluid (SGF) to give 0.32% pepsin and incubated for the indicated times at 37° C. as described in Example 39 and Astwood et al., 1996, herein incorporated by reference. The digested proteins were analyzed by reducing SDS-PACE (10 to 20% gradient gel) also as described in Laemmli, 1970, herein incorporated by reference.

[5] = target: NADP/thioredoxin system (Escherichia coli, UniProt P0AA25)
Experimental: Reactions were carried out in physiological buffered saline solution (PBS; i.e., 10 mM Na2HPO4, 1.8 mM KH2PO4, 2.7 mM KCl and 137 mM NaCl, pH 7.4) containing either 10 μg of pure target protein or 50 μg of raw milk. The reaction mixtures were incubated at 4° C. overnight or at 37° C. and 55° C. for 45 min. For complete reduction, samples were incubated in PBS containing 5 μl of 100 mM DTT and boiled 5 min. The reduced proteins were visualized on gels by mBBr labeling and gel electrophoresis as described below. The extent of reduction was determined by scanning the gels.
Sulfhydryl groups were visualized as their fluorescent mBBr derivatives. mBBr, 10 μl of a 100 mM solution, was added to each protein sample. After 20 min of incubation, the reaction was stopped by adding 10 μl of 100 mM 2-mercaptoethanol, 10 μl of 20% SDS and 20 μl of SDS/PAGE sample buffer containing 80% (v/v) glycerol and 0.005% bromophenol blue. Proteins were then separated by SDS/PAGE (10-20% acrylamide gradient) as described below. After electrophoresis, gels were placed in 12% trichloroacetic acid for 1 hr for fixation and then soaked overnight or longer in 40% (v/v) methanol and 10% (v/v) acetic acid with several changes to remove excess mBBr. The destained gels were then placed under 365 nm UV light to visualize fluorescent bands. […]

[6] = system: pepsin; assay: Pepsin assay in simulated gastric fluid; assay type: in vitro ADME, porcine; conditions: oxidized BLG in milk, SGF 37° C.
Experimental: BLG, 640 μg, or milk, 1 mg protein (i.e., about 30 μl), was incubated with or without the thioredoxin system (NTS) at either 4° C. […] The BLG, 320 μg, or milk, 500 μg protein, was then treated in 200 μl of simulated gastric fluid (SGF) as described by Astwood, J. D. et al. (1996), “Stability of food allergens to digestion in vitro”, Nature Biotechnol. 14:1269-1273. SGF consists of 0.32% pepsin (w/v) and 30 mM NaCl adjusted at pH 1.2 with HCl (Board of Trustees (ed.) 1995, Simulated Gastric Fluid, TS., pp. 2053 in the United States Pharmacopeia 23, The National Formulary 18. United States Pharmacopeial Convention, Inc. Rockville, Md.). The reaction mixture was incubated at 37° C. and stopped by adding 0.375-fold volume of 160 mM Na2CO3 (ca. pH 7) after 0, 0.25, 1, 2, 4, 8, 15, 30 and 60 min incubation. The protein mixture was then subjected to SDS-PAGE (15% gels) and stained for protein with Coomassie blue as described below. As indicated, the allergenicity of the digested samples was determined by skin test analysis.

[7] = system: atopic dogs; assay: Skin tests in atopic dogs (wheal area); conditions: dog, in vivo
Experimental: Newborn pups from two litters of the atopic dog colony, designated CGB and GCB, were injected subcutaneously at day 1 with 1 μg each of wheat, cows milk and beef extract (Miles, Inc., Elkhart, Ind., described in Example 33) in 0.2 ml of alum. A third litter, designated CBB, was injected with a soy extract (Miles, Inc. described in Example 33) in addition to these same allergens. Procedures for the sensitization, testing and maintenance of the pups were substantially the same as those described in Example 36.
About 3 min prior to skin testing, each dog received 4-5 ml of filtered 0.5% Evans blue dye solution (equivalent to 0.2 ml of 0.5% Evans blue dye per kg of weight) through a cephalic vein to enhance assessment of the cutaneous IgE antibodies. Serial dilutions of 100 μl of each sample were injected intradermally on the abdominal skin to establish the titer. After 15-20 min, the allergic response was determined by measuring the size of the blue wheal reaction (maximum length and width). An appropriate negative control (buffer diluted in physiological saline) was included for each animal tested. Repeated tests with thioredoxin, NTR, NADPH and pepsin alone were consistently negative.

[8] = system: trypsin; assay: Trypsin proteolysis of purified milk allergen proteins; assay type: biochemical; conditions: 2 μg trypsin
Experimental: The analysis of the reduction was done using the mBBr/SDS-PAGE techniques. Further in this study, when 10 μg of an NTS reduced purified milk allergen protein, β-lactoglobulin (Sigma Chemical Co.), was treated with 2 μg of trypsin, proteolysis was 100% as compared with only 50% for the identically trypsin treated oxidized β-lactoglobulin. […] However, 10 μg of purified […] reduced by the NTS was proteolyzed 80% by trypsin. Also 10 μg of α-lactalbumin reduced by 0.8 μg of thioredoxin and 0.5 mM DTT was 100% proteolyzed by 2 μg of trypsin.

T1 sequence (P04760 23-519): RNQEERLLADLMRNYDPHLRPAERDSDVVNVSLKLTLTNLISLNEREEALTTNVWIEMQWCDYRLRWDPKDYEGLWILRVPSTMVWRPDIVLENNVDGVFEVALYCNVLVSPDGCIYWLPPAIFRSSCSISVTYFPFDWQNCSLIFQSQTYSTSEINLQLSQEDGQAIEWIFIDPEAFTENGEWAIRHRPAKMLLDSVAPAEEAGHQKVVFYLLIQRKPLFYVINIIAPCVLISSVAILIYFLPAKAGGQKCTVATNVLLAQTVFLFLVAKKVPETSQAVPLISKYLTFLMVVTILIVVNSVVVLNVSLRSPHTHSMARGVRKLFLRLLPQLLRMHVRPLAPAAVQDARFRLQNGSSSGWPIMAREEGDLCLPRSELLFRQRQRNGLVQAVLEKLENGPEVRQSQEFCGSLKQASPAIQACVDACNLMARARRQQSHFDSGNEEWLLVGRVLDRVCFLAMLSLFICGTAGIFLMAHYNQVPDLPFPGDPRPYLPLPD
T1 sequence (P02716 25-520): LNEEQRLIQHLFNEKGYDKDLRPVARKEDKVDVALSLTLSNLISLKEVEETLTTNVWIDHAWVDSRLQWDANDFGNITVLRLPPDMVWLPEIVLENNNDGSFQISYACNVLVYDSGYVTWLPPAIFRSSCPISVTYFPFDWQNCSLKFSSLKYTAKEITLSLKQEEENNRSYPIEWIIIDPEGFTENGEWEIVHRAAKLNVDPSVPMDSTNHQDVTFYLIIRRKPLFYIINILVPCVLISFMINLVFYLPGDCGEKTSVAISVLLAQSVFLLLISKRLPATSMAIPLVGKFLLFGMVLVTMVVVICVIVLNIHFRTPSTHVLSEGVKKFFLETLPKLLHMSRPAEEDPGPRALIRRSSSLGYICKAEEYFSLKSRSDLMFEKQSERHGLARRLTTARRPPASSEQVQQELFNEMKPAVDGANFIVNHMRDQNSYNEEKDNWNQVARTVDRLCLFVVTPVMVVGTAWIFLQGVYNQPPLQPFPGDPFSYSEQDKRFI
T1 sequence (P09690 24-501, further chain): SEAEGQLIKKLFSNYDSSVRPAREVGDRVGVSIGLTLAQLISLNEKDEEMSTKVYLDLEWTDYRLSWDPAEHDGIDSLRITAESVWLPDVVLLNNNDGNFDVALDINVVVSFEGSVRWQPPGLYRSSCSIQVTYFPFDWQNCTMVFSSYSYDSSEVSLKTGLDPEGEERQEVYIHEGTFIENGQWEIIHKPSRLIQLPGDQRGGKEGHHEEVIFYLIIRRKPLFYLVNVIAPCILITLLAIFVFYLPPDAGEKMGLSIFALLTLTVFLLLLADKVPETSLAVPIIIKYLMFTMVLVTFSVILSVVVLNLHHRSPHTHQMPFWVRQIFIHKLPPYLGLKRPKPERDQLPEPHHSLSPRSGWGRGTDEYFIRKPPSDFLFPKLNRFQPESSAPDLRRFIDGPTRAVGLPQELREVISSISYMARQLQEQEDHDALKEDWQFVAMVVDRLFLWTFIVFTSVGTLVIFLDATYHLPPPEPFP
T1 sequence (P04756 21-457): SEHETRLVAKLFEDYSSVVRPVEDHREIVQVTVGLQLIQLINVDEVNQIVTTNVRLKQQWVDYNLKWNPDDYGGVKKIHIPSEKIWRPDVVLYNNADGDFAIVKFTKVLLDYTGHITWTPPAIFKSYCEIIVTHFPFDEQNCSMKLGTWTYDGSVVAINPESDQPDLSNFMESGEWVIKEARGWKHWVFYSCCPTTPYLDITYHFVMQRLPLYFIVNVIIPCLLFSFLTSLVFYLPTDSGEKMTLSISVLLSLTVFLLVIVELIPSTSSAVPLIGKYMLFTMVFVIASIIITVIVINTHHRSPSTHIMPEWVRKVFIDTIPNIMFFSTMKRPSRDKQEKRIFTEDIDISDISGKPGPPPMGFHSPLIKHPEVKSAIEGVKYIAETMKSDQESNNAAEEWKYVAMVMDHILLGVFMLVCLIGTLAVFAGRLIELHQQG

## O[C@H](CS)[C@H](O)CS (racemic) [DTT, dithiothreitol]
[1]
  % Binding, Treatment C: 85.0%
[2]
  Relative Reduction (%): 67%

## reduced form of BLG: BLG reduced by either NTS or DTT
[3]
  time to full reoxidation in air: 3 days

## β-lactoglobulin: bovine β-lactoglobulin, major milk allergen; Control = untreated BLG in Tables XVIII, XXI-XXIV
[4]
  half-life in SGF: about 2 hours
[5]
  time BLG remained reduced: 2 days
[6]
  time resisting digestion: at least 60 min
[7]
  share of the total wheal-inducing activity of milk: 80%
[8]; 10 μg oxidized protein
  proteolysis by trypsin: 50%
[8]; 10 μg protein reduced by the NTS
  proteolysis by trypsin: 100%
